Values of other authors in paper PMC7904743, “WIDOCK: a reactive docking protocol for virtual screening of covalent inhibitors” (Journal of Computer-Aided Molecular Design, 2021).
Like-named read-outs stand apart in the source and are kept apart here.

How the values were obtained:
NUDT7 = details: protein labeling at 200 μM; experimental actives if % labeling higher than 50%; cited from earlier work
OTUB2 = details: experimental actives if % labeling higher than 50%; cited from earlier work
[1] = thiol reactivity, cited from earlier work
[2] = natural log of average rate constant k
[3] = natural logarithm of average rate constant

Row | SMILES | NUDT7 % labeling (NUDT7) | OTUB2 % labeling (OTUB2) | ln(avg k) [1, 2] | ln(avg k) [1, 3]
1 | CS(=O)(=O)c1ccc(Cl)c(NC(=O)CCl)c1 [PCM-0102220, CS(=O)(=O)c1ccc(Cl)c(NC(=O)CCl)c1] | 5% | 0% | -15.663 | -15.663
2 | CNC(=O)C1CN(C(=O)CCl)c2ccccc2O1 (stereo not shown) [PCM-0102221, CNC(=O)C1CN(C(=O)CCl)c2ccccc2O1] | 0% | 15% | -15.966 | -15.966
3 | N#CC(c1cccs1)N1CCN(C(=O)CCl)CC1 (stereo not shown) [PCM-0102223, N#CC(c1cccs1)N1CCN(C(=O)CCl)CC1] | 0% | 0% | -15.143 | -15.143
4 | Cc1ccc(-n2nc(C)cc2NC(=O)CCl)cc1 [PCM-0102224, Cc1ccc(-n2nc(C)cc2NC(=O)CCl)cc1] | 0% | 35% | -16.116 | -16.116
5 | CC(NC(=O)CCl)c1ccc(F)cc1 (stereo not shown) [PCM-0102228, CC(NC(=O)CCl)c1ccc(F)cc1] | 7% | 20% | -15.820 | -15.820
6 | CC1(NC(=O)CCl)CCS(=O)(=O)C1 (stereo not shown) [PCM-0102230, CC1(NC(=O)CCl)CCS(=O)(=O)C1] | 0% | 0% | -16.090 | -16.090
7 | CCc1nc(NC(=O)CCl)sc1C [PCM-0102231, CCc1nc(NC(=O)CCl)sc1C] | 33% | 0% | -15.238 | -15.238
8 | O=C(CCl)Nc1ccccc1[N+](=O)[O-] [PCM-0102232, O=C(CCl)Nc1ccccc1[N+](=O)[O-]] | 24% | 20% | -15.562 | -15.562
9 | O=C(CCl)Nc1nc(-c2c[nH]c3ccccc23)cs1 [PCM-0102233, O=C(CCl)Nc1nc(-c2c[nH]c3ccccc23)cs1] | 26% | 25% | -15.707 | -15.707
10 | COc1ccccc1NC(=O)CCl [PCM-0102236, COc1ccccc1NC(=O)CCl] | 0% | 28% | -16.359 | -16.359
11 | O=C(CCl)N1CCN(S(=O)(=O)c2ccc(F)cc2)CC1 [PCM-0102237, O=C(CCl)N1CCN(S(=O)(=O)c2ccc(F)cc2)CC1] | 6% | 0% | -16.014 | -16.014
12 | O=C(CCl)Nc1ccc(F)c([N+](=O)[O-])c1 [PCM-0102238, O=C(CCl)Nc1ccc(F)c([N+](=O)[O-])c1] | 23% | 32% | -15.369 | -15.369
13 | O=C(CCl)N1CCN(c2cccc(C(F)(F)F)c2)CC1 [PCM-0102239, O=C(CCl)N1CCN(c2cccc(C(F)(F)F)c2)CC1] | 8% | 0% | -15.673 | -15.673
14 | O=C(CCl)N1CCN(S(=O)(=O)c2cccs2)CC1 [PCM-0102241, O=C(CCl)N1CCN(S(=O)(=O)c2cccs2)CC1] | 12% | 0% | -15.262 | -15.262
15 | O=C(CCl)Nc1nccs1 [PCM-0102242, O=C(CCl)Nc1nccs1] | 0% | 0% | -16.213 | -16.213
16 | O=C(CCl)N1CCN(Cc2cccs2)CC1 [PCM-0102243, O=C(CCl)N1CCN(Cc2cccs2)CC1] | 8% | 0% | -15.851 | -15.851
17 | NC(=O)C1CN(C(=O)CCl)c2ccccc2O1 (stereo not shown) [PCM-0102245, NC(=O)C1CN(C(=O)CCl)c2ccccc2O1] | 12% | 15% | -15.513 | -15.513

Row | SMILES | NUDT7 % labeling (NUDT7) | OTUB2 % labeling (OTUB2) | ln(avg k) [1, 2] | ln(avg k) [1, 3]
18 | O=C(CCl)Nc1cc(F)ccc1C(=O)O [PCM-0102247, O=C(CCl)Nc1cc(F)ccc1C(=O)O] | 0% | 0% | -16.882 | -16.882
19 | Cc1ccc(C)c(-n2nc(C)cc2NC(=O)CCl)c1 [PCM-0102249, Cc1ccc(C)c(-n2nc(C)cc2NC(=O)CCl)c1] | 0% | 43% | -15.689 | -15.689
20 | O=C(CCl)NC1CCCC1 [PCM-0102250, O=C(CCl)NC1CCCC1] | 0% | 0% | -16.419 | -16.419
21 | CC1CCC(C#N)(N(C)C(=O)CCl)CC1 (stereo not shown) [PCM-0102251, CC1CCC(C#N)(N(C)C(=O)CCl)CC1] | 5% | 0% | -15.448 | -15.448
22 | N#Cc1oc2ccccc2c1NC(=O)CCl [PCM-0102252, N#Cc1oc2ccccc2c1NC(=O)CCl] | 37% | 86% | -15.605 | -15.605
23 | COc1ccc(N2CCN(C(=O)CCl)CC2)cc1 [PCM-0102254, COc1ccc(N2CCN(C(=O)CCl)CC2)cc1] | 0% | 0% | -15.625 | -15.625
24 | CCOC(=O)N1CCC(NC(=O)CCl)CC1 [PCM-0102255, CCOC(=O)N1CCC(NC(=O)CCl)CC1] | 0% | 24% | -15.985 | -15.985
25 | CC(NC(=O)CCl)c1ccccc1Br (stereo not shown) [PCM-0102256, CC(NC(=O)CCl)c1ccccc1Br] | 19% | 29% | -16.021 | -16.021
26 | O=C(CCl)N1CCN(C(=O)Nc2ccccc2)CC1 [PCM-0102257, O=C(CCl)N1CCN(C(=O)Nc2ccccc2)CC1] | 7% | 0% | -15.051 | -15.051
27 | O=C(CCl)Nc1cc(Cl)ccc1-n1cncn1 [PCM-0102258, O=C(CCl)Nc1cc(Cl)ccc1-n1cncn1] | 21% | 0% | -15.839 | -15.839
28 | CN(CC(=O)NC(C)(C)C)C(=O)CCl [PCM-0102259, CN(CC(=O)NC(C)(C)C)C(=O)CCl] | 0% | 0% | -16.044 | -16.044
29 | Cc1c(C#N)c(NC(=O)CCl)n(-c2ccccc2)c1C [PCM-0102261, Cc1c(C#N)c(NC(=O)CCl)n(-c2ccccc2)c1C] | 30% | 9% | -16.038 | -16.038
30 | Cc1nc(-c2cccc(NC(=O)CCl)c2)cs1 [PCM-0102262, Cc1nc(-c2cccc(NC(=O)CCl)c2)cs1] | 0% | 63% | -15.670 | -15.670
31 | CC(C)C(C#N)N1CCN(C(=O)CCl)CC1 (stereo not shown) [PCM-0102263, CC(C)C(C#N)N1CCN(C(=O)CCl)CC1] | 17% | 31% | -14.716 | -14.716
32 | Cc1csc(N(C(=O)CCl)c2ccccc2)n1 [PCM-0102265, Cc1csc(N(C(=O)CCl)c2ccccc2)n1] | 19% | 6% | -15.232 | -15.232
33 | O=C(CCl)N1c2ccccc2OCC1c1ccccc1 (stereo not shown) [PCM-0102266, O=C(CCl)N1c2ccccc2OCC1c1ccccc1] | 11% | 0% | -16.335 | -16.335
34 | CNC(=O)c1ccc(NC(=O)CCl)cc1 [PCM-0102267, CNC(=O)c1ccc(NC(=O)CCl)cc1] | 0% | 0% | -15.048 | -15.048
